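Where inhibition never reached the appropriate level, the endpoint shown equals the highest concentration tested. Otherwise, values were interpolated linearly from a five-concentration, 48-hour dose response in 96-well plates. TGI: total growth inhibition.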
How the values were obtained:
Test in all cases: growth of human tumour cells (NCI), 48 h
MCF7 breast = test system: MCF7 breast
NCI-H23 lung = test system: NCI-H23 lung
SK-MEL-2 melanoma = test system: SK-MEL-2 melanoma
SK-MEL-5 melanoma = test system: SK-MEL-5 melanoma
UACC-62 melanoma = test system: UACC-62 melanoma
NCI-H226 lung = test system: NCI-H226 lung
786-0 renal = test system: 786-0 renal
A549 NSCLC = test system: A549 NSCLC
SF-295 CNS = test system: SF-295 CNS
NCI/ADR-RES ovarian = test system: NCI/ADR-RES ovarian
A498 renal = test system: A498 renal
SK-OV-3 ovarian = test system: SK-OV-3 ovarian
SR leukemia = test system: SR leukemia
HT29 colon = test system: HT29 colon
CAKI-1 renal = test system: CAKI-1 renal
SF-539 CNS = test system: SF-539 CNS
MALME-3M melanoma = test system: MALME-3M melanoma
K-562 leukemia = test system: K-562 leukemia
PC-3 prostate = test system: PC-3 prostate
RPMI-8226 leukemia = test system: RPMI-8226 leukemia
SF-268 CNS = test system: SF-268 CNS
RXF 393 renal = test system: RXF 393 renal
DU-145 prostate = test system: DU-145 prostate
MOLT-4 leukemia = test system: MOLT-4 leukemia
OVCAR-5 ovarian = test system: OVCAR-5 ovarian
HS 578T breast = test system: HS 578T breast
HOP-62 NSCLC = test system: HOP-62 NSCLC
M14 melanoma = test system: M14 melanoma
ACHN renal = test system: ACHN renal
LOX IMVI melanoma = test system: LOX IMVI melanoma
UO-31 renal = test system: UO-31 renal
MDA-N = test system: MDA-N
IGROV1 ovarian = test system: IGROV1 ovarian
UACC-257 melanoma = test system: UACC-257 melanoma
OVCAR-8 ovarian = test system: OVCAR-8 ovarian
SNB-19 CNS = test system: SNB-19 CNS
BT-549 breast = test system: BT-549 breast
U251 CNS = test system: U251 CNS
COLO 205 colon = test system: COLO 205 colon
KM12 colon = test system: KM12 colon
SW-620 colon = test system: SW-620 colon
SN12C renal = test system: SN12C renal
MDA-MB-435 = test system: MDA-MB-435
NCI-H460 lung = test system: NCI-H460 lung
T-47D breast = test system: T-47D breast
MDA-MB-231 breast = test system: MDA-MB-231 breast
SNB-75 CNS = test system: SNB-75 CNS
HOP-92 NSCLC = test system: HOP-92 NSCLC
OVCAR-3 ovarian = test system: OVCAR-3 ovarian
OVCAR-4 ovarian = test system: OVCAR-4 ovarian
TK-10 renal = test system: TK-10 renal
CCRF-CEM leukemia = test system: CCRF-CEM leukemia
SK-MEL-28 melanoma = test system: SK-MEL-28 melanoma
HCC-2998 colon = test system: HCC-2998 colon
HCT-15 colon = test system: HCT-15 colon
EKVX NSCLC = test system: EKVX NSCLC
HCT-116 colon = test system: HCT-116 colon
HL-60(TB) leukemia = test system: HL-60(TB) leukemia
NCI-H522 lung = test system: NCI-H522 lung

Measured: TGI

O=C(OCC1CCCN2CCCCC12)c1ccncc1 (stereo unspecified)
not listed: HL-60(TB) leukemia | NCI-H522 lung
> 100 µM: all other assays above

O=c1[nH]c(Nc2cccc(Br)c2)nc2nc[nH]c12
not listed: A498 renal | SF-539 CNS | HOP-62 NSCLC | U251 CNS | SN12C renal
> 100 µM: all other assays above
